Measured values from PubChem BioAssay (NCI).
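Five concentrations, 48 hours, 96-well plates. The concentration for 50% growth inhibition is given as GI50. At the TGI there is no net growth.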

Key:
Assay in all cases: DTP human tumour cell line panel, 48 h
A498 renal = test system: A498 renal
HCC-2998 colon = test system: HCC-2998 colon
UO-31 renal = test system: UO-31 renal
HT29 colon = test system: HT29 colon
KM12 colon = test system: KM12 colon
OVCAR-4 ovarian = test system: OVCAR-4 ovarian
SN12C renal = test system: SN12C renal
SNB-75 CNS = test system: SNB-75 CNS
U251 CNS = test system: U251 CNS
NCI/ADR-RES ovarian = test system: NCI/ADR-RES ovarian

Row | SMILES | GI50 (A498 renal) [µM] | TGI (A498 renal) [µM] | GI50 (HCC-2998 colon) [µM] | TGI (HCC-2998 colon) [µM] | GI50 (UO-31 renal) [µM] | TGI (UO-31 renal) [µM] | TGI (HT29 colon) [µM] | TGI (KM12 colon) [µM] | TGI (OVCAR-4 ovarian) [µM] | TGI (SN12C renal) [µM] | TGI (SNB-75 CNS) [µM] | TGI (U251 CNS) [µM] | GI50 (HT29 colon) [µM] | GI50 (KM12 colon) [µM] | GI50 (NCI/ADR-RES ovarian) [µM] | TGI (NCI/ADR-RES ovarian) [µM] | GI50 (OVCAR-4 ovarian) [µM] | GI50 (SN12C renal) [µM] | GI50 (SNB-75 CNS) [µM] | GI50 (U251 CNS) [µM]
1 | Cc1ccc(/C=C2\CN(C(=O)CCN3CCC(=NO)CC3)C/C(=C\c3ccc(C)cc3)C2=O)cc1 | 1.48 | 2.96 | 1.57 | 3.18 | 1.42 | 2.73 |  |  |  |  |  |  |  |  |  |  |  |  |  | 
2 | CCOc1c(Cc2ccccc2)c(=O)n2c3ccccc3n3c(=O)n(C)c(=O)c1c23 |  | > 100 |  | > 100 |  | > 100 | > 100 | > 100 | > 100 | > 100 | 81.2 | > 100 |  |  |  |  |  |  |  | 
3 | N#CCCCCCn1c2ccccc2c2c3c(c4c5ccccc5[nH]c4c21)C(=O)N(O)C3=O | 1.72 | 4.94 | 1.82 | 6.06 |  |  | 4.66 | 3.39 | 13 | 4.92 | 9.55 | 1.57 | 1.86 | 1.37 | 5.52 | > 100 | 1.9 | 1.29 | 0.684 | 0.435
4 | O=[P+](O)c1cc2c3ccccc3ccc2c2ccccc12 |  |  |  | > 100 |  |  | > 100 | > 100 | > 100 | > 100 | > 100 | > 100 |  |  |  |  |  |  |  | 
5 | C/C(=N/OCCC(=O)O)C1CC1 |  |  |  | > 100 |  | > 100 | > 100 | > 100 | > 100 | > 100 | > 100 | > 100 |  |  |  |  |  |  |  | 
6 | Cc1cccc(Cc2cnc(NC(=O)/C=C/c3ccco3)s2)c1 | 0.199 | 3.93 | 0.135 | > 100 | 0.0847 | > 100 | > 100 | > 100 | > 100 | > 100 |  | > 100 | 0.0373 | 0.039 | 0.0364 | > 100 | 1.59 | 0.073 |  | 0.0396
7 | CCOC(=O)CCC(NC(=O)c1ccc(Nc2nc3cc(N)cc(N)c3nc2-c2ccccc2)cc1)C(=O)OCC (centres undefined) |  |  |  |  | > 46.6 | > 87.1 | > 100 | > 100 | > 100 | 58.1 | > 100 | > 66 | 83.6 | > 52.9 | 35 | > 79.1 | 44.5 | 26.2 | > 100 | > 44.7
8 | Nc1ccc(C(=O)N/C(=C\c2ccc3c(c2)OCO3)c2nc3ccc4c(c3[nH]2)C(=O)c2ccccc2C4=O)cc1 |  | 93.9 |  | > 100 |  | 18.7 | > 100 | > 100 | > 100 | > 100 | 57.8 | > 100 |  |  |  |  |  |  |  | 
9 | O=C1NC(=Nc2ccccc2Cl)SC1C(=O)Nc1ccc([N+](=O)[O-])cc1[N+](=O)[O-] (centres undefined) |  | > 100 |  | > 100 |  | > 100 | > 100 | > 100 | > 100 | > 100 | > 100 | > 100 |  |  |  |  |  |  |  | 
10 | COc1cc2ccc(C(=O)O)cc2cc1OC |  | > 100 |  |  |  | > 100 | > 100 | > 100 | > 100 | > 100 | > 100 | > 100 |  |  |  |  |  |  |  | 
11 | CC(C)C(NCc1c2ccccc2nc2ccccc12)C(=O)O (centres undefined) |  |  |  | > 100 |  |  | > 100 | > 100 | 42.8 | > 100 | > 100 | > 100 |  |  |  |  |  |  |  | 
12 | O=C1/C(=C/c2ccccc2)CN(C(=O)Oc2ccccc2)C/C1=C\c1ccccc1 |  | > 100 |  |  |  | 88.9 | > 100 | > 100 | > 100 | > 100 | 17.5 | > 100 |  |  |  |  |  |  |  | 
13 | CCCN(CCC)c1c([N+](=O)[O-])cc(C(N)=O)cc1[N+](=O)[O-] |  |  |  | > 100 |  | > 100 | > 100 | > 100 | > 100 | > 100 | > 100 | > 100 |  |  |  |  |  |  |  | 
14 | CCC1C(=O)OCc2c1cc1n(c2=O)Cc2ccccc2-1 (centres undefined) |  | > 100 |  | > 100 |  | > 100 | > 100 | > 100 | > 100 | > 100 | > 100 |  |  |  |  |  |  |  |  | 
15 | COc1ccccc1NC(=O)NS(=O)(=O)c1ccccc1 |  |  |  | > 100 |  | > 100 | > 100 | > 100 | > 100 | > 100 | > 100 | > 100 |  |  |  |  |  |  |  | 
16 | c1cc[c]([Sn]([O]c2cccc3cccnc23)([c]2ccccc2)[c]2ccccc2)cc1 |  |  | 0.0236 | 0.0625 | 0.0163 | 0.0301 | 0.095 | 0.0267 | 0.0343 | 0.0293 | 0.198 | 0.0374 | 0.0311 | 0.0135 |  |  | 0.0146 | 0.0151 | 0.0509 | 0.0184
17 | CC(C)=CCCC1(C)C=Cc2c(ccc3c2[nH]c2cc(O)c(C)cc23)O1 (centres undefined) |  |  | 4.63 | 8.86 |  | > 2.5 | 10.5 | 8.77 | > 25 | 8.24 |  | 8.03 | 4.9 | 4.74 |  |  |  | 4.63 |  | 4.53
18 | COC(=O)C1=C(c2cc(OC)c(OC)c(OC)c2)OC(c2cc(OC)c(OC)c(OC)c2)C1 (centres undefined) |  | 51.4 |  | 41.4 |  | 40 | 58.5 | 32.4 | 70.6 | 55.1 | 78.1 | 44.2 |  |  |  |  |  |  |  | 
19 | C=C(C)[C@@H]1CC[C@@H]2C(=CC[C@]3(C)C([C@H](C)CC/C=C(/C)C(=O)O)CC[C@@]23C)[C@@]1(C)CCC(=O)O (some centres undefined) |  | 74.4 |  | 35.1 |  | 30.7 | 48.4 | 48.7 | > 100 | > 100 | > 100 | 70 |  |  |  |  |  |  |  | 
20 | NC(=O)COc1ccc(Br)cc1Br |  | > 100 |  |  |  | > 100 | > 100 | > 100 |  | > 100 | > 100 | > 100 |  |  |  |  |  |  |  | 
21 | N#CC(N)(C(=O)C(=O)NCCCNC(=O)C(=O)C(N)(C#N)c1ccc(Cl)cc1)c1ccc(Cl)cc1 (centres undefined) |  | > 100 |  | > 100 |  | > 100 | > 100 | > 100 | > 100 | > 100 | > 100 | > 100 |  |  |  |  |  |  |  | 
